{"source": "PubChem BioAssay (NCI)", "assay_in_all_cases": "DTP human tumour cell line panel, 48 h", "key": {"[1]": {"tested_on": "HT29 colon"}, "[2]": {"tested_on": "HS 578T breast"}, "[3]": {"tested_on": "NCI-H460 lung"}, "[4]": {"tested_on": "SR leukemia"}, "[5]": {"tested_on": "SF-268 CNS"}, "[6]": {"tested_on": "DU-145 prostate"}, "[7]": {"tested_on": "MCF7 breast"}, "[8]": {"tested_on": "LOX IMVI melanoma"}, "[9]": {"tested_on": "NCI/ADR-RES ovarian"}, "[10]": {"tested_on": "SF-539 CNS"}, "[11]": {"tested_on": "OVCAR-3 ovarian"}, "[12]": {"tested_on": "OVCAR-5 ovarian"}, "[13]": {"tested_on": "HOP-62 NSCLC"}, "[14]": {"tested_on": "T-47D breast"}, "[15]": {"tested_on": "A549 NSCLC"}, "[16]": {"tested_on": "SW-620 colon"}, "[17]": {"tested_on": "HL-60(TB) leukemia"}, "[18]": {"tested_on": "MDA-MB-231 breast"}, "[19]": {"tested_on": "KM12 colon"}, "[20]": {"tested_on": "SNB-19 CNS"}, "[21]": {"tested_on": "PC-3 prostate"}, "[22]": {"tested_on": "MALME-3M melanoma"}, "[23]": {"tested_on": "IGROV1 ovarian"}, "[24]": {"tested_on": "CAKI-1 renal"}, "[25]": {"tested_on": "HCT-116 colon"}, "[26]": {"tested_on": "RPMI-8226 leukemia"}, "[27]": {"tested_on": "HCT-15 colon"}, "[28]": {"tested_on": "MDA-MB-435"}, "[29]": {"tested_on": "MOLT-4 leukemia"}}, "note": "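Following 48 hours of exposure in 96-well plates, responses at five concentrations were used to interpolate endpoints linearly. GI50 is the concentration that inhibits growth by half. TGI is the concentration that stops growth completely.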", "data": [{"smiles": "CCCCOc1ccc(S(=O)(=O)N2CCN(c3nc(C)cc(N4CCOCC4)n3)CC2)cc1", "values": [{"measurement": "GI50", "setting": "[1]", "result": 0.888, "unit": "µM"}, {"measurement": "TGI", "setting": "[1]", "result": 6.23, "unit": "µM"}, {"measurement": "GI50", "setting": "[2]", "result": "> 100", "unit": "µM"}, {"measurement": "TGI", "setting": "[2]", "result": "> 100", "unit": "µM"}, {"measurement": "GI50", "setting": "[3]", "result": 1.67, "unit": "µM"}, {"measurement": "TGI", "setting": "[3]", "result": "> 100", "unit": "µM"}, {"measurement": "GI50", "setting": "[4]", "result": 5.46, "unit": "µM"}, {"measurement": "TGI", "setting": "[4]", "result": "> 100", "unit": "µM"}, {"measurement": "GI50", "setting": "[5]", "result": 2.32, "unit": "µM"}, {"measurement": "TGI", "setting": "[5]", "result": "> 100", "unit": "µM"}, {"measurement": "GI50", "setting": "[6]", "result": 1.01, "unit": "µM"}, {"measurement": "TGI", "setting": "[6]", "result": "> 100", "unit": "µM"}, {"measurement": "GI50", "setting": "[7]", "result": "> 100", "unit": "µM"}, {"measurement": "TGI", "setting": "[7]", "result": "> 100", "unit": "µM"}, {"measurement": "GI50", "setting": "[8]", "result": 0.294, "unit": "µM"}, {"measurement": "TGI", "setting": "[8]", "result": 0.942, "unit": "µM"}, {"measurement": "GI50", "setting": "[9]", "result": 2.45, "unit": "µM"}, {"measurement": "TGI", "setting": "[9]", "result": "> 100", "unit": "µM"}, {"measurement": "GI50", "setting": "[10]", "result": "> 100", "unit": "µM"}, {"measurement": "TGI", "setting": "[10]", "result": "> 100", "unit": "µM"}, {"measurement": "GI50", "setting": "[11]", "result": "> 100", "unit": "µM"}, {"measurement": "TGI", "setting": "[11]", "result": "> 100", "unit": "µM"}, {"measurement": "GI50", "setting": "[12]", "result": "> 100", "unit": "µM"}, {"measurement": "TGI", "setting": "[12]", "result": "> 100", "unit": "µM"}, {"measurement": "GI50", "setting": "[13]", "result": "> 100", "unit": "µM"}, {"measurement": "TGI", "setting": "[13]", "result": "> 100", "unit": "µM"}, {"measurement": "GI50", "setting": "[14]", "result": "> 100", "unit": "µM"}, {"measurement": "TGI", "setting": "[14]", "result": "> 100", "unit": "µM"}, {"measurement": "GI50", "setting": "[15]", "result": 3.85, "unit": "µM"}, {"measurement": "TGI", "setting": "[15]", "result": "> 100", "unit": "µM"}, {"measurement": "GI50", "setting": "[16]", "result": 2.33, "unit": "µM"}, {"measurement": "TGI", "setting": "[16]", "result": "> 100", "unit": "µM"}, {"measurement": "GI50", "setting": "[17]", "result": 0.42, "unit": "µM"}, {"measurement": "TGI", "setting": "[17]", "result": "> 100", "unit": "µM"}, {"measurement": "TGI", "setting": "[18]", "result": "> 100", "unit": "µM"}, {"measurement": "GI50", "setting": "[19]", "result": 3.12, "unit": "µM"}, {"measurement": "TGI", "setting": "[19]", "result": "> 100", "unit": "µM"}, {"measurement": "GI50", "setting": "[20]", "result": "> 100", "unit": "µM"}, {"measurement": "TGI", "setting": "[20]", "result": "> 100", "unit": "µM"}, {"measurement": "GI50", "setting": "[21]", "result": 4.54, "unit": "µM"}, {"measurement": "TGI", "setting": "[21]", "result": "> 100", "unit": "µM"}, {"measurement": "GI50", "setting": "[22]", "result": "> 100", "unit": "µM"}, {"measurement": "TGI", "setting": "[22]", "result": "> 100", "unit": "µM"}, {"measurement": "GI50", "setting": "[23]", "result": 1.09, "unit": "µM"}, {"measurement": "TGI", "setting": "[23]", "result": "> 100", "unit": "µM"}, {"measurement": "GI50", "setting": "[24]", "result": 2.11, "unit": "µM"}, {"measurement": "TGI", "setting": "[24]", "result": "> 100", "unit": "µM"}, {"measurement": "GI50", "setting": "[25]", "result": 1.44, "unit": "µM"}, {"measurement": "TGI", "setting": "[25]", "result": "> 100", "unit": "µM"}, {"measurement": "GI50", "setting": "[26]", "result": 2.64, "unit": "µM"}, {"measurement": "TGI", "setting": "[26]", "result": "> 100", "unit": "µM"}, {"measurement": "GI50", "setting": "[27]", "result": 2.09, "unit": "µM"}, {"measurement": "TGI", "setting": "[27]", "result": "> 100", "unit": "µM"}, {"measurement": "GI50", "setting": "[28]", "result": 1.45, "unit": "µM"}, {"measurement": "TGI", "setting": "[28]", "result": "> 100", "unit": "µM"}, {"measurement": "GI50", "setting": "[29]", "result": 2.27, "unit": "µM"}, {"measurement": "TGI", "setting": "[29]", "result": "> 100", "unit": "µM"}]}]}
